Paper PMC11819603, “Development of a reliable, sensitive, and convenient assay for the discovery of new eIF5A hypusination inhibitors” (PLOS ONE, 2025)

Experiments:
[1] = system: eIF5A hypusination in HT29 cells; test: eIF5A hypusination in intact HT29 cells, Western blot; format: cell-based; conditions: Homo sapiens, HT-29, 24 h
Protocol: (§1) We tested the ability of the GC7 analogs to inhibit hypusination in intact cells. MCF-7 cells (Fig 5B), a classical model of breast cancer cell line, and HT29 cells (Fig 5C), a cell model of colorectal cancer, were treated with 40 μM of GC7, 1, 2, 3, and 4 for 24h. Cells were lysed and analyzed by Western blot. As observed, none of the molecules modified eIF5A expression. […] GC7 analogs inhibited hypusination from 35 to 55%.
The human breast cancer cell line MCF7 (HTB-22 ATCC) and colorectal adenocarcinoma HT29 (HTB-38 ATCC) were cultured in DMEM (Gibco) supplemented with 10% FBS (Dutscher), 10 U/mL penicillin, and 10 mg/mL streptomycin. […]
After treatment, cells were washed with ice-cold PBS and lysed in RIPA Buffer (50 mM Tris pH 7.5, 150 mM NaCl, 0.1% SDS, 0.5% Na Deoxycholate, 5 mM NaF, 2.5 mM Na4P2O7, 1% NP4O) containing a protease inhibitor cocktail (complete Roche). […] The membranes were probed with the appropriate primary antibody that was detected by horseradish peroxidase-conjugated secondary antibody (Jackson Immunoresearch) and visualized by chemiluminescence (ECL Amersham RPN 3244) using a Fuji LAS-4000 imager. ImageJ® software was used to quantify band intensity and the ratios of proteins of interest were normalized to a loading control. […]

[2] = system: eIF5A hypusination in MCF7 cells; test: eIF5A hypusination in intact MCF7 cells, Western blot; format: cell-based, human; conditions: 24 h
Protocol: as §1
The human breast cancer cell line MCF7 (HTB-22 ATCC) and colorectal adenocarcinoma HT29 (HTB-38 ATCC) were cultured in DMEM (Gibco) supplemented with 10% FBS (Dutscher), 10 U/mL penicillin, and […] streptomycin. 1 mM of aminoguanidine was added to the medium to inhibit the degradation of GC7 and polyamines by amine oxidase from the serum and the production of reactive oxygen species. Cells were maintained at 37°C, 5% CO2 in a humid atmosphere.
After treatment, cells were washed with ice-cold PBS and lysed in RIPA Buffer (50 mM Tris pH 7.5, 150 mM NaCl, 0.1% SDS, 0.5% Na Deoxycholate, 5 mM NaF, 2.5 mM Na4P2O7, 1% NP4O) containing a protease inhibitor cocktail (complete Roche). 10 μg of proteins were separated by SDS PAGE and transferred to a PVDF membrane (Immobilon-P Millipore). The membranes were probed with the appropriate primary antibody that was detected by horseradish peroxidase-conjugated secondary antibody (Jackson Immunoresearch) and visualized by chemiluminescence (ECL Amersham RPN 3244) using a Fuji LAS-4000 imager. ImageJ® software was used to quantify band intensity and the ratios of proteins of interest were normalized to a loading control. Full-length Western blots are provided in the supplementary data (S19, S20 Figs).

DHPS [3] = target: T1, DHPS (Homo sapiens, UniProt P49366); test: Hyp'Assay without DOHH: deoxyhypusination of eIF5A revealed with Hpu98 antibody; format: biochemical; conditions: 5 μM spermidine
T1 construct: host or cells: E. coli BL21 (DE3)
T1 sequence (P49366 1-369): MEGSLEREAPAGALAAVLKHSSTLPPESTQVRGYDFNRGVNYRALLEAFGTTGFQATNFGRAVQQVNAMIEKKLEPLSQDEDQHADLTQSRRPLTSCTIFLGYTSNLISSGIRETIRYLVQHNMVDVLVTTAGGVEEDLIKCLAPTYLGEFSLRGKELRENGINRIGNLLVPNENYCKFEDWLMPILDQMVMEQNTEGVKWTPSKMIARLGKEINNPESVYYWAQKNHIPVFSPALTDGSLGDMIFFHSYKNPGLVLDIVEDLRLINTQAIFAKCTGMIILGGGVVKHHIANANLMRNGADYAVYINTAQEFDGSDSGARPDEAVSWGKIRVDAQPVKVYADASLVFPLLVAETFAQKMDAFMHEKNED
Excerpt: To address this issue, we compared the ability of GC7 to inhibit DHPS or DOHH by adding GC7 during the first step of the Hyp’Assay; when DHPS mediates the deoxyhypusination reaction (Fig 2A), or only during the second step, when DOHH hydroxylate deoxyhypusinated eIF5A. […] This confirms the specificity of GC7 towards DHPS. When finding new hypusination inhibitors adding them during the first or the second step of the Hyp’Assay will allow us to determine if the inhibition affects DHPS or DOHH. Another way to discriminate between DHPS or DOHH inhibitors would be to use Hpu98, an antibody that recognized both hypusinated and deoxyhypusinated eIF5A, instead of Hpu24, which is specific for hypusinated eIF5A [18]. […] We performed a new Hyp’Assay by omitting DOHH in the reaction mix and using the Hpu98 antibody. First, we performed a dose response experiment with spermidine at pH: 8.0 and 9.0 (Fig 3E). The Hyp’Assay allows the detection of deoxyhypusinated eIF5A in a spermidine-dependent manner. Under these conditions, deoxyhypusination was equally efficient at both pH tested. […] We also tested the ability of GC7 (Fig 3F) and CPX or EDTA (Fig 3G) to inhibit DHPS. […] This provided us with another method to distinguish between DHPS and DOHH inhibitors.
The cell-free reaction described in 4.4 is performed in triplicates in a 96-wells plate (MaxiSorp, ThermoFisher) in the presence of 3 μg of eIF5A, 2 μg of DHPS, and 2 μg of DOHH by well. The reaction product, hypusinated eIF5A, is adsorbed onto the plate overnight at 4°C. The plate is washed (100 μL/well) thrice with PBS-T (PBS– 0.05% Tween20), then saturated with 1% non-fat dry milk in PBS-T for 2 h at room temperature. The plate is washed thrice with PBS-T and incubated overnight at 4°C with the anti-hypusine antibody (1:2000 in saturation buffer, 50 μL/well). The next day and after 5 washes with PBS-T, HRP-coupled anti-rabbit secondary antibody diluted 1:5000 in saturation buffer (50 μL/well) is added for 2 h at room temperature.

DHPS [4] = target: T1, DHPS; test: Hyp'Assay: cell-free eIF5A hypusination in 96-well plates (recombinant eIF5A, DHPS, DOHH; anti-hypusine antibody Hpu24), substance present in the DHPS step; format: biochemical

SMILES: N=C(N)NCCCCCCCN [GC7, N1-guanyl-1,7-diaminoheptane]
- inhibition at 40 µM [1]: 80%
- hypusinated eIF5A, Western blot quantification, Mean (Figure 5B) ([2]; 40 μM, Ctrl 100, 4 experiments): 20.45
- inhibition at 40 µM ([2]; Homo sapiens): 80%
- ability to inhibit deoxyhypusination (DHPS [3]): efficient in inhibiting deoxyhypusination
- Relative deoxyhypusination of eIF5A, Mean (quantification from Figure 3F, 3G) (DHPS [3]; CTRL 100,0, inhibitor concentration not given): 7,531 a.u
- concentration at which inhibition was complete (DHPS [4]; 5 μM spermidine): 1 µM
- concentration at which inhibition was detectable (DHPS [4]; 5 μM spermidine): 0.01 µM
- concentration at which the inhibitory effect began (DHPS [4]; 100 μM spermidine): 0.1 µM
- concentration of maximal inhibitory effect (DHPS [4]; 100 μM spermidine): 10 µM
- Relative hypusination of eIF5A, Mean (quantification from Figure 3D) (DHPS [4]; GC7 added during the DHPS step, 5 μM spermidine, CTRL 100,0): 4,227 a.u
- hypusination signal, Mean (quantification from Figure 3A) (DHPS [4]; Spermidine 5 µM, GC7 1 (µM)): 54.02
- hypusination signal, Mean (quantification from Figure 3A) (DHPS [4]; Spermidine 5 µM, GC7 10 (µM)): 19.57
- hypusination signal, Mean (quantification from Figure 3A) (DHPS [4]; Spermidine 5 µM, GC7 100 (µM)): 16.79
- hypusination signal, Mean (quantification from Figure 3A) (DHPS [4]; Spermidine 5 µM, GC7 1000 (µM)): 0.5077
- hypusination signal, Mean (quantification from Figure 3A) (DHPS [4]; Spermidine 5 µM, GC7 10000 (µM)): 0
- hypusination signal, Mean (quantification from Figure 3A) (DHPS [4]; Spermidine 100 µM, GC7 1 (µM)): 100
- hypusination signal, Mean (quantification from Figure 3A) (DHPS [4]; Spermidine 100 µM, GC7 10 (µM)): 95.15
- hypusination signal, Mean (quantification from Figure 3A) (DHPS [4]; Spermidine 100 µM, GC7 100 (µM)): 91.8
- hypusination signal, Mean (quantification from Figure 3A) (DHPS [4]; Spermidine 100 µM, GC7 1000 (µM)): 51.9
- hypusination signal, Mean (quantification from Figure 3A) (DHPS [4]; Spermidine 100 µM, GC7 10000 (µM)): 0.07615
- effect on hypusination (DHPS [4]; added during the first step (DHPS), 5 μM spermidine): total inhibition of hypusination
- inhibition at 1 µM (DHPS [4]; at 1 µM, 5 µM spermidine (reviewer's reading of Fig. 3)): ~95%
